Read-outs that look alike come from different tables or passages of the source. One block for each compound: values may come before it.
Assays:
[1] = test system: CYP1A2; experiment: Induction potency of drug metabolizing enzyme (CYP) using cryopreserved human hepatocytes: CYP1A2 mRNA; details: 10 μM, approx. 48 hours, mRNA relative to β-NF 10 μM
Protocol: (§1) Cryopreserved human hepatocytes (XenoTeck) were rapidly thawed at 37° C., and viable cells were obtained using Hepatocytes Isolation Kit (Nosan Corporation). After cells prepared were diluted with ice cold William's Medium E (10% FBS, +PSG) to give a concentration of 5×10^5 viable cells/mL, the cells were seeded onto a 48-well collagen-coated plate (BD Biosciences) at a concentration of 1×10^5 cells/cm^2 and cultured at 37° C. in 5% CO2 for 24 hours. Then, the medium was replaced with Hepato-STIM (registered trade mark: BD Biosciences) (+EGF, PSG, −FBS), and the cells were further cultured at 37° C. in 5% CO2 for 24 hours. […] The culture medium containing test compound, β-NF or Rif was replaced every 24 hours. Test compound, β-NF and Rif were each dissolved in dimethyl sulfoxide (DMSO: Wako Pure Chemical Industries, Ltd.), and culture medium containing test compound (final concentrations; 1, 3 and 10 μM), β-NF (final concentration; 10 μM) or Rif (final concentration; 10 μM) was prepared by adding them to Hepato-STIM(+EGF, PSG, −FBS), respectively. Final concentration of DMSO was set to be 0.1%, and culture medium containing 0.1% DMSO was used for control. After completion of the treatment, the cells were washed with PBS once, and total RNA was purified using Total RNA Purification Kit (Applied Biosystems). The purified total RNA was subjected to reverse transcription reaction using TaqMan Reverse Transcription Reagents (Applied Biosystems) to synthesize cDNA, where oligo dT was used as a primer. The reaction was carried out using Gene Amp PCR system 9700 at 25° C. for 10 minutes, followed by at 48° C. for 60 minutes. Then, reverse transcriptase was deactivated at 95° C. for 10 minutes. The levels of mRNA for CYP1A1 and GAPDH were quantified using SYBR Green PCR Core Reagents Kit (Applied Biosystems), and those for CYP1A2 and that of CYP3A4 were measured using Taqman PCR Core Reagents Kit (Applied Biosystems) and ABI Prism 7900 Sequence Detection System (Applied Biosystems).
(§2) The ability of a test compound to induce CYP1A1 was calculated as follows: Ability of a test compound to induce CYP1A1(%)={[(amount of mRNA of CYP1A1 in test compound treated cells)/(amount of mRNA of GAPDH in test compound treated cells)]/[(amount of mRNA of CYP1A1 in control cells)/(amount of mRNA of GAPDH in control cells)]−1}/{[(amount of mRNA of CYP1A1 in positive control treated cells)/(amount of mRNA of GAPDH in positive control treated cells)]/[(amount of mRNA of CYP1A1 in control cells)/(amount of mRNA of GAPDH in control cells)]−1}×100
(§3) The ability to induce CYP1A2 or CYP3A4 was calculated in the same manner described above.

[2] = test system: CYP1A1; details: human, hepatocytes
Protocol: Cryopreserved human hepatocytes (XenoTeck) were rapidly thawed at 37° C., and viable cells were obtained using Hepatocytes Isolation Kit (Nosan Corporation). After cells prepared were diluted with ice cold William's Medium E (10% FBS, +PSG) to give a concentration of 5×10^5 viable cells/mL, the cells were seeded onto a 48-well collagen-coated plate (BD Biosciences) at a concentration of 1×10^5 cells/cm^2 and cultured at 37° C. in 5% CO2 for 24 hours. Then, the medium was replaced with Hepato-STIM (registered trade mark: BD Biosciences) (+EGF, PSG, −FBS), and the cells were further cultured at 37° C. in 5% CO2 for 24 hours. […] The culture medium containing test compound, β-NF or Rif was replaced every 24 hours. Test compound, β-NF and Rif were each dissolved in dimethyl sulfoxide (DMSO: Wako Pure Chemical Industries, Ltd.), and culture medium containing test compound (final concentrations; 1, 3 and 10 μM), β-NF (final concentration; 10 μM) or Rif (final concentration; 10 μM) was prepared by adding them to Hepato-STIM(+EGF, PSG, −FBS), respectively. Final concentration of DMSO was set to be 0.1%, and culture medium containing 0.1% DMSO was used for control. […] The levels of mRNA for CYP1A1 and GAPDH were quantified using SYBR Green PCR Core Reagents Kit (Applied Biosystems), and those for CYP1A2 and that of CYP3A4 were measured using Taqman PCR Core Reagents Kit (Applied Biosystems) and ABI Prism 7900 Sequence Detection System (Applied Biosystems).
as §2

[3] = test system: CYP1A2; details: human, hepatocytes
Protocol: as §1, §2, §3

[4] = test system: CYP3A4; experiment: Induction potency of drug metabolizing enzyme (CYP) using cryopreserved human hepatocytes: CYP3A4 mRNA; details: approx. 48 hours, mRNA relative to Rif 10 μM
Protocol: Cryopreserved human hepatocytes (XenoTeck) were rapidly thawed at 37° C., and viable cells were obtained using Hepatocytes Isolation Kit (Nosan Corporation). After cells prepared were diluted with ice cold William's Medium E (10% FBS, +PSG) to give a concentration of 5×10^5 viable cells/mL, the cells were seeded onto a 48-well collagen-coated plate (BD Biosciences) at a concentration of 1×10^5 cells/cm^2 and cultured at 37° C. in 5% CO2 for 24 hours. Then, the medium was replaced with Hepato-STIM (registered trade mark: BD Biosciences) (+EGF, PSG, −FBS), and the cells were further cultured at 37° C. in 5% CO2 for 24 hours. […] The culture medium containing test compound, β-NF or Rif was replaced every 24 hours. Test compound, β-NF and Rif were each dissolved in dimethyl sulfoxide (DMSO: Wako Pure Chemical Industries, Ltd.), and culture medium containing test compound (final concentrations; 1, 3 and 10 μM), β-NF (final concentration; 10 μM) or Rif (final concentration; 10 μM) was prepared by adding them to Hepato-STIM(+EGF, PSG, −FBS), respectively. […] The levels of mRNA for CYP1A1 and GAPDH were quantified using SYBR Green PCR Core Reagents Kit (Applied Biosystems), and those for CYP1A2 and that of CYP3A4 were measured using Taqman PCR Core Reagents Kit (Applied Biosystems) and ABI Prism 7900 Sequence Detection System (Applied Biosystems).
as §2, §3

[5] = test system: CYPs; experiment: Induction potency on CYPs, overall statement (cryopreserved human hepatocytes); details: CYP1A1, CYP1A2, CYP3A4; 1, 3 and 10 μM
Protocol: Cryopreserved human hepatocytes (XenoTeck) were rapidly thawed at 37° C., and viable cells were obtained using Hepatocytes Isolation Kit (Nosan Corporation). After cells prepared were diluted with ice cold William's Medium E (10% FBS, +PSG) to give a concentration of 5×10^5 viable cells/mL, the cells were seeded onto a 48-well collagen-coated plate (BD Biosciences) at a concentration of 1×10^5 cells/cm^2 and cultured at 37° C. in 5% CO2 for 24 hours. Then, the medium was replaced with Hepato-STIM (registered trade mark: BD Biosciences) (+EGF, PSG, −FBS), and the cells were further cultured at 37° C. in 5% CO2 for 24 hours. […] The culture medium containing test compound, β-NF or Rif was replaced every 24 hours. […] The levels of mRNA for CYP1A1 and GAPDH were quantified using SYBR Green PCR Core Reagents Kit (Applied Biosystems), and those for CYP1A2 and that of CYP3A4 were measured using Taqman PCR Core Reagents Kit (Applied Biosystems) and ABI Prism 7900 Sequence Detection System (Applied Biosystems). […]
as §3

Induction Ability compared to positive control (%) CYP1A2 [1]: 100.0%
Compound: O=c1cc(-c2ccccc2)oc2ccc3ccccc3c12 [β-naphthof lavone, β-naphthoflavone]

Induction Ability compared to positive control (%) CYP1A1 ([2]; 1 μM): 0.1%
Induction Ability compared to positive control (%) CYP1A1 ([2]; 3 μM): 0.6%
Induction Ability compared to positive control (%) CYP1A1 ([2]; 10 μM): 4.6%
Induction Ability compared to positive control (%) CYP1A2 ([3]; 1 μM): −0.1%
Induction Ability compared to positive control (%) CYP1A2 ([3]; 3 μM): −0.7%
Induction Ability compared to positive control (%) CYP1A2 ([3]; 10 μM): 2.5%
Induction Ability compared to positive control (%) CYP3A4 ([4]; 1 μM): −2.4%
Induction Ability compared to positive control (%) CYP3A4 ([4]; 3 μM): −3.4%
Induction Ability compared to positive control (%) CYP3A4 ([4]; 10 μM): −4.0%
Compound: COc1cc2nc(Cl)nc(-c3cccc(NC(=O)OC(C)(C)C)c3)c2cc1OC [Example 1, t-butyl [3-(2-chloro-6,7-dimethoxyquinazolin-4-yl)phenyl]carbamate]

Compound: CNc1nc(-c2cccc(NC(=O)c3ccc(C(=O)OC)cc3)c2)c2cc(OC)c(OC)cc2n1 [Example 10, methyl N-[3-(6,7-dimethoxy-2-methylaminoquinazolin-4-yl)phenyl]terephthalamic acid]
induction potency on CYPs compared with the comparative example [5]: lower induction potency on CYPs than the compound of the comparative example

Reference: patent US8492543B2, “Method for producing quinazoline derivative” (Eisai R&D Management Co., Ltd., priority 2007, dated 2013)
